Source: US9351983B2, “Use of glycerophosphoinositols for the treatment of septic shock” (CONSIGLIO NAZIONALE DELLE RICERCHE, priority 2012, dated 2016)

System: LPS-activated tissue-factor (TF) activity in human monocytes
Assay: Pro-coagulant activity of tissue factor (one-stage clotting time) in LPS-stimulated human monocytes
Assay type: cell-based
Description: FIG. 2—The glycerophosphoinositols inhibit LPS-activated tissue-factor activity in human monocytes. Human monocytes were purified from peripheral blood of healthy donors and incubated at 37° C. for 20 min without or with different concentrations (from 50 μM to 300 μM) GroPIns or GroPIns4P, and for a further 5 h and 24 h in the absence and in presence of 0.1 μg/ml LPS from E. coli. […] Data are means (±SD) of three independent experiments performed with cells from different donors. Asterisks indicate statistically significant differences (*p=0.015; **p<0.005; ***p=0.0003) versus their respective controls. As shown, pro-coagulant activity was not detectable in untreated monocytes, and it was induced in a time-dependent manner by LPS stimulation.
The glycerophosphoinositol, differently from the PLA2IVα inhibitor, inhibits LPS-activated tissue-factor activity in human monocytes. Human monocytes were purified from peripheral blood of two healthy donors (experiment I and II) and pre-incubated at 37° C. for 20 min without (black line) or with 300 μM glycerophosphoinositol (GroPIns, blue line) or 0.5 μM PLA2IVα inhibitor (pyrrophenone, Pf, red line), and for a further 24 h in the absence or presence of increasing concentrations of LPS from E. coli (endotoxin).
The glycerophosphoinositol inhibits in a dose-dependent manner LPS-activated tissue-factor activity in human monocytes. Human monocytes were purified from peripheral blood of three healthy donors (experiments III, IV and V) and pre-incubated at 37° C. for 20 min without or with increasing concentrations of glycerophosphoinositol (GroPIns) and for a further 24 h in the absence or presence of 10 ng/ml of LPS from E. coli (endotoxin). […] The two insets in Exp IV and V show the pro-coagulant activity of tissue factor, assessed in cells stimulated by 10 ng/ml of endotoxin, with (filled bars) or without (dotted bars) 20 min pre-incubation at 37° C., in absence (Control) or in presence of 300 μM GroPIns.
The glycerophosphoinositols inhibit LPS-activated tissue-factor activity in human monocytes.
Human monocytes were obtained from whole blood collected from healthy donors (informed consent was obtained) and anticoagulated with 0.1 vol 3.8% sodium citrate/0.15 mol/l NaCl. The leukocytes were sedimented at 180×g for 15 min at 10° C. The sedimented cells were diluted to the initial volume with citrate-saline and sedimented again. This step was repeated to minimise platelet contamination. The cells were then layered onto Lymphoprep™, and centrifuged at 700×g for 20 min at 20° C. The ring of mononuclear cells was collected and sedimented at 620×g for 7 min at 8° C. The pellet was resuspended in citrate-saline and the cells were washed twice. Monocytes were purified using a discontinuous Percoll™ density gradient; the mononuclear cell preparation was resuspended in RPMI-1640 medium supplemented with 10% heat-inactivated foetal calf serum, and was layered onto a 46% isosmotic Percoll™ solution. After centrifugation at 20° C. for 30 min at 550×g, the cells at the RPMI-1640 medium/Percoll™ interface were collected and sedimented at 620×g. The pellet was resuspended in citrate-saline and the cells were washed twice. The final monocyte preparation was then resuspended in serum-free RPMI-1640 at the concentration required.
The pro-coagulant activity of tissue factor (TF activity) was measured in cell lysates according to one-stage clotting time [as reported in (Evangelista et al., Thromb Haemost. 2005; 94, 568-577)]. One hundred μl of cell lysates were added to 100 μl of 37° C. prewarmed normal human plasma. After 30 s, 100 μl 20 mM CaCl2 were added to the mixture and the clotting time was determined using a KC4A Amellung Coagulometer (Mascia Brunelli, Milan, Italy). The data were then converted in arbitrary units by interpolation with a standard curve generated with serial dilutions of human recombinant thromboplastin (Hemoliance, Instrumentation Laboratory).

[1] = 300 μM, endotoxin 10 ng/ml for 24 h (FIG. 12)

Row | SMILES | TF activity (0.5 μM, 20 min pre-incubation, increasing concentrations of endotoxin for 24 h (FIG. 10)) | TF activity [1] | efficacy in reducing TF activity compared with GroPIns [1]
1 | O=C1NC(=O)/C(=C/c2ccc(C(=O)NC[C@@H]3C[C@@H](SC(c4ccccc4)(c4ccccc4)c4ccccc4)CN3C(=O)c3ccccc3C(=O)c3ccc(F)cc3F)cc2)S1 [pyrrophenone, reference compound] | does not significantly inhibit endotoxin effect on tissue-factor activity | – | –
2 | O=P(O)(O)O[C@@H]1[C@@H](O)[C@@H](O)[C@@H](OP(=O)(O)OCC(O)CO)[C@H](O)[C@H]1OP(=O)(O)O (stereo partly drawn) [GroPIns4,5P2, glycerophosphoinositol 4,5-bisphosphate] | – | reduce TF activity | higher efficacy than GroPIns
